Experimental data published in a melting point compilation (Tetko et al.).

melting point [°C] | SMILES
199 to 201 | CC(=O)N1CCN(CC(N)=NO)CC1
112 to 114 | CC(=O)N(c1nc(C=O)cs1)C1CC1
64 to 66 | N#CC1(C(=O)O)CCC1
116 to 118 | Cc1cccc(I)c1C(=O)O
114 to 116 | OCc1ccc(N2CCN(c3ncccn3)CC2)c(F)c1
43 to 48 | COc1ccc(NC(=O)Oc2ccccc2)c([N+](=O)[O-])c1
70 to 72 | COc1cc(Br)[nH]n1
55 to 58 | Nc1cc(S(=O)(=O)Nc2ccc(Cl)cc2)ccc1N1CCOCC1
67 to 69 | CC(=O)c1nc2ccccc2n1C
104 to 106 | CC1(C)C(O)CC1O (stereo not drawn)
54 to 56 | NCC1(CO)CCOCC1
159 to 161 | Nc1cnn(-c2ccc(C(F)(F)F)cc2)c1
88 to 90 | Nc1ccccc1N1CCOC1=O
306 to 308 | O=C(O)c1cccc(NC(=O)c2ccc(Br)cc2)c1
147 to 149 | CCOc1oc(-c2ccccc2)nc1C(=O)O
189 to 191 | CC1CNc2ccccc2C(=O)N1 (stereo not drawn)
165 to 167 | CC(C)(C)c1ccc(C(C)(C)C(=O)O)cc1
279 to 281 | Cc1ccc(Nc2cccc(C(=O)O)c2)nn1
146 to 148 | NCc1noc(-c2cccs2)n1
175 to 177 | Cc1ccc(N2C(=O)CC(C(=O)O)C2c2cccs2)cc1 (stereo not drawn)
181 to 183 | O=C(O)C1CCN(S(=O)(=O)c2ccc3c(c2)CCCC3)CC1
145 to 147 | O=C(O)Cc1cn(-c2ccccc2)nc1-c1ccc(F)cc1
243 to 245 | Cn1nc(C(C)(C)C)c2cc(C(=O)O)cnc21

melting point [°C] | SMILES
70 to 80 | O=C(O)CSCc1cccc(Br)c1
170 to 172 | O=C(O)c1c[nH]c2cccc([N+](=O)[O-])c12
47 to 49 | Cc1c([N+](=O)[O-])cccc1S(=O)(=O)Cl
124 to 126 | Cc1cc(Br)c(S(=O)(=O)Cl)c(Br)c1
110 to 112 | O=C1NCCOc2ccccc21
80 to 82 | COCCOc1cccc(C(=O)O)c1
59 to 61 | CC(=O)N1CCCc2cc(Br)ccc21
90 to 92 | CNc1ccc([N+](=O)[O-])c(C)c1
37 to 39 | O=C1CCCOc2cc(F)ccc21
166 to 168 | O=C(O)c1oc2ccccc2c1CSc1cccs1
118 to 120 | Nc1ccc(CC(=O)N2CCSCC2)cc1
119 to 121 | COc1ccc(C2C(CO)CCC(=O)N2C)cc1 (stereo not drawn)
46 to 48 | CC(C)(C)c1ccc(S(=O)(=O)CCN)cc1
126 to 128 | Nc1ccc(Cl)c(C(=O)NC2CC2)c1
221 to 223 | NC(C(=O)O)c1cccc(Br)c1 (stereo not drawn)
199 to 201 | Nc1c(-c2ccccn2)nc2ccccn12
56 to 58 | CCN(CCC(N)=S)C(C)=O
169 to 171 | NC(=S)c1ccc(Br)s1
179 to 181 | Nc1nnc(-c2cccc(OC(F)F)c2)o1
52 to 54 | CC(=O)c1ccoc1
259 to 261 | O=C(O)c1ccc(N2CCCC2)c([N+](=O)[O-])c1
122 to 124 | O=S1CCCNc2ccccc21 (stereo not drawn)
66 to 70 | COC(=O)c1cc(Br)ccc1S(=O)(=O)Cl

melting point [°C] | SMILES
160 to 162 | Cc1n[nH]c(N)c1C#N
150 to 152 | NS(=O)(=O)c1ccc(CNC(=O)OCC(F)(F)F)cc1
152 to 154 | CN(C)c1ccc(N2C(=O)C=CC2=O)cc1
88 to 90 | CCOC(C)C(N)=NO (stereo not drawn)
152 to 154 | COc1cc(-n2cccc2)c(Cl)cc1C(=O)O
168 to 170 | Cn1cnnc1Sc1ccc(N)cc1Cl
73 to 77 | CC(=O)c1ccc(S(=O)(=O)N2CCCCCC2)cc1
219 to 221 | Nc1cc2c(nn1)CCNC2
139 to 141 | NC(=O)CCS(=O)(=O)CCCl
90 to 92 | Cc1cc(C)n(CCS(C)(=O)=O)n1
177 to 179 | O=C(O)c1cc(Br)nn1-c1ccc(F)cc1
121 to 123 | O=C(O)CCOc1ccccc1[N+](=O)[O-]
144 to 146 | COC(=O)c1cc2c(OC(F)F)cccc2[nH]1
237 to 239 | O=C(O)c1cnn(-c2ccc(Cl)cc2)c1
229 to 231 | O=C(O)c1ccc(S(=O)(=O)NCc2ccco2)cc1
133 to 135 | Cc1cc(C=O)c(C)n1-c1ccc(F)cc1F
104 to 106 | COc1ccc(Sc2ccc(N)cc2Cl)cc1
174 to 176 | Nc1cc(F)ccc1N1C(=O)C2CCCCC2C1=O (stereo not drawn)
103 to 105 | O=C1OC(CCl)CN1c1ccccc1 (stereo not drawn)
180 to 182 | Cc1sc(NC(=O)CCl)c(C#N)c1C
88 to 90 | Cc1cc(C(=O)CCl)c(C)n1CC1CCCO1 (stereo not drawn)
113 to 115 | CCOc1cc(C=O)ccc1OCc1ccc(C(C)(C)C)cc1
244 to 246 | Cn1c(=O)c2sccc2n2c(CCl)nnc12

melting point [°C] | SMILES
62 to 64 | O=[N+]([O-])c1ccc(Cl)cc1I
138 to 140 | O=C(O)Cc1cccc(OCc2ccncc2)c1
101 to 103 | Cn1cc(CN=[N+]=[N-])c(-c2ccc(C#N)cc2)n1
210 to 212 | O=C(O)c1ccc(N2C(=O)CCC2=O)cc1
74 to 76 | CC(=O)CSc1ccccc1[N+](=O)[O-]
98 to 100 | NCc1nnc(-c2cccc(Br)c2)o1
107 to 109 | O=C(O)CCNC(=O)C1CC1
130 to 132 | N#CC1(NC(=O)CCl)CCCCC1
178 to 180 | c1ccc(CN2CCOC(c3nn[nH]n3)C2)cc1 (stereo not drawn)
114 to 116 | COC(=O)c1snc(-c2ccccc2)c1N
154 to 156 | NS(=O)(=O)c1ccc(Cl)nc1
192 to 194 | NC(=O)NC1CCCC1
119 to 121 | CC(C)CNC(=O)c1ccc(N)cc1
119 to 121 | O=C(CCl)Nc1ccnn1Cc1ccccc1Cl
139 to 141 | CC(NC(=O)OC(C)(C)C)C(N)=NO (stereo not drawn)
152 to 154 | CCOC(=O)C(C#N)C(N)=O (stereo not drawn)
117 to 119 | CCNC(=O)Cc1ccc(N)cc1
70 to 72 | N#Cc1ccc(N2CCC(N)CC2)nc1
161 to 163 | CC1CCN(Cc2ccccc2CN)CC1
169 to 171 | CC(C)(C)C(=O)NO
129 to 131 | CCOc1cc(C(=O)O)ccc1OCC(=O)OC
259 to 261 | Cc1cc(C)n2nc(S)nc2n1
55 to 57 | COc1ccc(-c2csc(C)n2)cc1

melting point [°C] | SMILES
223 to 225 | Nc1ccc(S(=O)(=O)Nc2ccc(Cl)c(Cl)c2)cc1
184 to 186 | COc1ccc2nc(C(=O)O)ccc2c1
137 to 139 | NCc1ccc(NC(=O)c2cccnc2)cc1
66 to 68 | O=Cc1cnn(-c2ccccc2)n1
56 to 58 | CC(C)c1nc(C(=O)O)cs1
93 to 97 | CCc1ccc(OCC(=O)O)cc1
95 to 97 | CC1CC(N)=NO1 (stereo not drawn)
146 to 148 | Nc1cccc(CN2CCC(O)CC2)c1
213 to 215 | O=C(O)C1CCN(c2ccc(Br)cn2)CC1
201 to 203 | COc1ccc2c(c1)OCC(C(=O)O)=C2
86 to 88 | CC(C)=CCOc1cccc(C(=O)O)c1
74 to 76 | Fc1cccc(CCNC2=NCCS2)c1
214 to 216 | O=C(O)C(c1ccc(Br)cc1)N1CCCC1 (stereo not drawn)
191 to 193 | O=C(O)C1CCN(S(=O)(=O)Cc2ccccc2)CC1
179 to 181 | O=C(O)c1ccc(NC(=O)N2CCCCC2)c(F)c1
83 to 85 | COC(=O)c1ccc(Oc2ccc(Cl)cc2N)cc1
197 to 199 | Cc1cc(C(=O)O)ccc1S(=O)(=O)Cl
189 to 191 | O=C(O)c1cc2c(OC(F)(F)F)cccc2[nH]1
118 to 120 | CC1CCN(C(=O)c2ccc(N)cc2)CC1
190 to 194 | O=C(O)c1ccccc1-n1cnnn1
136 to 138 | Cc1ccc(S(C)(=O)=O)cc1S(=O)(=O)Cl
149 to 151 | CC1CCC(Nc2ccccn2)CC1 (stereo not drawn)
161 to 163 | NNC(=O)c1cn(-c2ccccc2)nc1-c1ccccc1

melting point [°C] | SMILES
210 to 212 | COc1ccc(C)cc1Nc1nnc(S)s1
210 to 212 | Nc1ccc(C(=O)N2CCCc3ccccc32)cc1
69 to 71 | NNC(=O)CCOc1ccccc1
179 to 181 | N#Cc1cccc(OCc2cccc(C(=O)O)c2)c1
173 to 175 | Clc1cccc(Nc2nc3ccccc3s2)c1
89 to 91 | N#CC=Cc1ccc(C(F)(F)F)cc1
104 to 106 | Cc1nn(CC(=O)OC(C)C)c(C)c1C=O
69 to 71 | COC(=O)Cc1ccccc1O
159 to 161 | Nc1ncnc(Cl)c1C=O
80 to 82 | O=[N+]([O-])c1cc(S(=O)(=O)Cl)c(Br)cc1F
143 to 145 | Cc1occc1C(=O)NCC(=O)O
168 to 170 | CC1(C2CC2)NC(=O)NC1=O (stereo not drawn)
137 to 139 | Cn1cnnc1Sc1ccccc1N
119 to 121 | N#Cc1cc([N+](=O)[O-])cnc1Cl
115 to 117 | COC(=O)C[C@H](NC(=O)OCC1c2ccccc2-c2ccccc21)C(=O)O
244 to 246 | CN1C(=C(C#N)C(=O)CCl)Nc2ccccc21
109 to 111 | O=C(O)C1CC1c1c(F)cccc1Cl (stereo not drawn)
200 to 204 | N#Cc1c(C(F)(F)F)cc(=O)[nH]c1SCC(=O)O
136 to 138 | O=C(O)CN(Cc1cccnc1)c1ccccc1
175 to 177 | CCOC=C1C(=O)N(c2ccc(OCC)cc2)C(=O)c2ccccc21
119 to 121 | COc1ccc(Nc2n[nH]c(N)c2C#N)cc1

SMILES | melting point [°C]
c1cc2[nH]ncc2cc1NC1CN2CCC1CC2 (stereo not drawn) | 192 to 194
Brc1ccc(C2CNCCO2)cc1 (stereo not drawn) | 53 to 55
CC(Oc1ccc(Br)cc1)C(=O)O (stereo not drawn) | 118 to 120
Cn1cc(S(=O)(=O)Cl)cc1C(=O)C(Cl)(Cl)Cl | 158 to 160
COC(=O)c1sccc1N=[N+]=[N-] | 69 to 71
CC(N)Cn1cnc2c(cnn2C)c1=O (stereo not drawn) | 148 to 150
Cc1cc(C)c(CBr)c(C)c1 | 49 to 51
